The values below come from publication PMC6245477, “Discovery of a Novel CCR5 Antagonist Lead Compound Through Fragment Assembly” (Molecules, 2008).

In series [1] the target is T1, CCR5 (Homo sapiens, UniProt P51681).
T1 construct: expressed in transfected cells
In words: Calcium mobilization assay (RANTES-induced, Fluo-4 AM). The format is cell-based. To be noted: for pIC50: CHO cells stably expressing CCR5 and Gα16, RANTES 30 nM, read-out: IC50 (antagonistic activity against CCR5); for effect of structural change on potency relative to compound 2: SAR statement from IC50 values. How it is done: For the primary assay, the percent inhibitory rates of the compounds 1, 2 and 2a-l at 1 μM were measured. Except compounds 2a and 2c, the other twelve compounds were remarkably antagonist of CCR5 activity. Therefore, we determined their IC50 values (Table 1).
CHO cells stably expressing CCR5 and Gα16 were loaded with 2 μmol/L Fluo-4 AM in Hanks balanced salt solution (HBSS, containing KCl 5.4 mM, Na2HPO4 0.3 mM, KH2PO4 0.4 mM, NaHCO3 4.2 mM, CaCl2 1.3 mM, MgCl2 0.5 mM, Mg2SO4 0.6 mM, NaCl 137 mM, BSA 5 g/L, Glucose 5.6 mM, Sulfinpyrazone 250 μM, pH 7.4) at 37 °C for 45 minutes. After the cells being rinsed with the reaction buffer, 50 μL HBSS containing known antagonists (positive control), compounds of interest or DMSO (negative control, final concentration 1%) were added. After incubation at room temperature for 10 minutes, 25 μL RANTES (final concentration 30 nM) was dispensed into the well using a FlexStation II micro-plate reader (Molecular Devices, Sunnyvale, CA, USA) and intracellular calcium change was recorded with an excitation wavelength of 485 nm and emission wavelength of 525 nm. The half maximal inhibitory concentrations (IC50s) of compounds were determined with GraphPad Prism software by constructing their dose-response curves.

pIC50: −log10 of the molar value.

T1 sequence (P51681 whole entry): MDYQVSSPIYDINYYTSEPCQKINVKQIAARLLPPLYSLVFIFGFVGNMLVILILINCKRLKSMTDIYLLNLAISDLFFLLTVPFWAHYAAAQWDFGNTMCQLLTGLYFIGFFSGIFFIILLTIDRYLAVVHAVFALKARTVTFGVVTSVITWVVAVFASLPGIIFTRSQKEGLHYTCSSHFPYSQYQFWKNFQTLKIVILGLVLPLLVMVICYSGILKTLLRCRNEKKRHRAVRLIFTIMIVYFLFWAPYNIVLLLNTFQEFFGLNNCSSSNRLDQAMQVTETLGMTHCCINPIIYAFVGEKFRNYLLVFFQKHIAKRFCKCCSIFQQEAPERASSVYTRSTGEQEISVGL

Take `O=C(CCC(=O)N1CCN(c2ccnc3cc(Cl)ccc23)CC1)N1CCN(c2ccnc3cc(Cl)ccc23)CC1` [Compound 1, 1,4-bis(4-(7-chloroquinolin-4-yl)piperazin-1-yl)butane-1,4-dione]: the pIC50 in series [1] was 5.70.
In the case of `O=C(N[C@@H](CCN1CCN(c2ccnc3cc(Cl)ccc23)CC1)c1ccccc1)C1CCC(F)(F)CC1` [Compound 2, N-((S)-3-(4-(7-Chloroquinolin-4-yl)piperazin-1-yl)-1-phenylpropyl)-4,4-difluorocyclohexanecarbox-amide], the pIC50 in series [1] is 6.16. Also, in series [1] (ratio of IC50 values, vs compound 1), the “fold change of IC50 compared to compound 1” value came out at 3 fold.
Take `O=C(N[C@@H](CCN1CCN(c2ccnc3cc(Cl)ccc23)CC1)c1ccccc1)c1ccc(F)cc1` [Compound 2a, N-((S)-3-(4-(7-Chloroquinolin-4-yl)piperazin-1-yl)-1-phenylpropyl)-4-fluorobenzamide]: the melting point lay within 77 to 79 °C.
`O=C(N[C@@H](CCN1CCN(c2ccnc3cc(Cl)ccc23)CC1)c1ccccc1)C1CCCCC1` [Compound 2b, N-((S)-3-(4-(7-Chloroquinolin-4-yl)piperazin-1-yl)-1-phenylpropyl)cyclohexanecarboxamide] registered a melting point of 153 to 158 °C. The pIC50 in series [1] is 5.58.
Consider `O=C1CCC(C(=O)N[C@@H](CCN2CCN(c3ccnc4cc(Cl)ccc34)CC2)c2ccccc2)CC1` [Compound 2d, N-((S)-3-(4-(7-Chloroquinolin-4-yl)piperazin-1-yl)-1-phenylpropyl)-4-oxocyclohexanecarboxamide], for which the melting point fell in the range of 56 to 59 °C. For the same compound, in series [1], the pIC50 was less than 6.00.
As to `O=C(Cc1ccccc1)N[C@@H](CCN1CCN(c2ccnc3cc(Cl)ccc23)CC1)c1ccccc1` [Compound 2e, N-((S)-3-(4-(7-Chloroquinolin-4-yl)piperazin-1-yl)-1-phenylpropyl)-2-phenylacetamide], the melting point is 69 to 72 °C. Moreover, the pIC50 in series [1] is less than 5.00.
As to `Cc1ccc(S(=O)(=O)N[C@@H](CCN2CCN(c3ccnc4cc(Cl)ccc34)CC2)c2ccccc2)cc1` [Compound 2f, N-((S)-3-(4-(7-Chloroquinolin-4-yl)piperazin-1-yl)-1-phenylpropyl)-4-methylbenzenesulfonamide], the melting point lay within 132 to 136 °C. In series [1], the pIC50 was less than 5.00 and the “effect of structural change on potency relative to compound 2” value is “decrease or loss of potency”.
As to `O=C(N[C@@H](CCN1CCN(c2ncccn2)CC1)c1ccccc1)C1CCC(F)(F)CC1` [Compound 2g, N-((S)-3-(4-(Pyrimidin-2-yl)piperazin-1-yl)-1-phenylpropyl)-4,4-difluorocyclohexanecarboxamide], the pIC50 in series [1] was less than 6.00.
The same measure, in the same setting: with `O=C(N[C@@H](CCN1CCN(c2ncnc3[nH]cnc23)CC1)c1ccccc1)C1CCC(F)(F)CC1` [Compound 2h, N-((S)-3-(4-(9H-Purin-6-yl)piperazin-1-yl)-1-phenylpropyl)-4,4-difluorocyclohexanecarboxamide] the figure was less than 5.00; with `O=C(N[C@@H](CCN1CCN(c2ccncc2)CC1)c1ccccc1)C1CCC(F)(F)CC1` [Compound 2i, N-((S)-3-(4-(pyridin-4-yl)piperazin-1-yl)-1-phenylpropyl)-4,4-difluorocyclohexanecarboxamide], less than 5.00.
As to `O=C(N[C@@H](CCN1CCN(c2ccc3ccccc3n2)CC1)c1ccccc1)C1CCC(F)(F)CC1` [Compound 2j, N-((S)-3-(4-(Quinolin-2-yl)piperazin-1-yl)-1-phenylpropyl)-4,4-difluorocyclohexanecarboxamide], the melting point fell in the range of 50 to 53 °C. In series [1], the pIC50 is 6.63. Moreover, the “fold increase in potency compared with compound 2” value in series [1] (ratio of IC50 values, vs compound 2) came to 3 fold.
With `O=C(NC(CCN1CCN(c2ccnc3cc(Cl)ccc23)CC1)c1ccccc1)C1CCC(F)(F)CC1` (centres unmarked) [Compound 2k, N-(3-(4-(7-Chloroquinolin-4-yl)piperazin-1-yl)-1-phenylpropyl)-4,4-difluorocyclohexanecarboxamide], in series [1], the pIC50 was 6.17 and the “effect of structural change on potency relative to compound 2” value is recorded as “no effect on potency”.
As to `O=C(C1CCC(F)(F)CC1)N1CCN(c2ccnc3cc(Cl)ccc23)CC1` [Compound 2l, (4-(7-chloroquinolin-4-yl)piperazin-1-yl)(4,4-difluorocyclohexyl)methanone], in series [1], the pIC50 was less than 6.00 and the “effect of structural change on potency relative to compound 2” value is “nearly leads to a loss of potency”.
